Read-outs that look alike come from different tables or passages of the source. Values belong to the compound of their own block, whether it stands above or below them.
Legend:
MCF-7 [1] = test: MTT cytotoxicity assay, MCF-7; conditions: MCF-7 tumor cell line, 72 h, 0.04 μM to 40 μM
MCF-10A [2] = test: MTT cytotoxicity assay, MCF-10A; conditions: MCF-10A normal cell line, 72 h, 0.04 μM to 40 μM
Human galectin-1 [3] = target: T1, Human galectin-1 (Homo sapiens, UniProt P09382); test: Competitive fluorescence polarization, galectin-1 with high-affinity fluorescent probe 25; assay type: binding; set-up: made in house; conditions: for Kd / Kd Galectin-1: galectin-1 50 nM, probe 25 1 nM, 100 nM BSA, rt, average ± SEM; for Galectin-3/galectin-1: ratio of Kd values, Table 2 (thiodigalactosides), galectin-1 selectivity over galectin-3
T1 sequence (P09382 whole entry): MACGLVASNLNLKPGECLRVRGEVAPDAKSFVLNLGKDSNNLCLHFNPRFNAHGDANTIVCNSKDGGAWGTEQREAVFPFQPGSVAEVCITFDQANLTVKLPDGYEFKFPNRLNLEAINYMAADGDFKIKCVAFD

JIMT-1 [4] = test: MTT cytotoxicity assay, JIMT-1; conditions: JIMT-1 tumor cell line, 72 h, 0.04 μM to 40 μM
Human galectin-1 [5] = target: T1, Human galectin-1; test: Competitive fluorescence polarization, galectin-1 (performed as described in ref 13); conditions: for Galectin-3/galectin-1: ratio of Kd values, Table 1 (monogalactosides)
JIMT-1 [6] = test system: JIMT-1
MCF-10A [7] = test system: MCF-10A
MCF-7 [8] = test system: MCF-7
galectin-3 [9] = target: T2, galectin-3 (Homo sapiens, UniProt P17931); test: Competitive fluorescence polarization, galectin-3 (performed as described in ref 13)
T2 sequence (P17931 whole entry): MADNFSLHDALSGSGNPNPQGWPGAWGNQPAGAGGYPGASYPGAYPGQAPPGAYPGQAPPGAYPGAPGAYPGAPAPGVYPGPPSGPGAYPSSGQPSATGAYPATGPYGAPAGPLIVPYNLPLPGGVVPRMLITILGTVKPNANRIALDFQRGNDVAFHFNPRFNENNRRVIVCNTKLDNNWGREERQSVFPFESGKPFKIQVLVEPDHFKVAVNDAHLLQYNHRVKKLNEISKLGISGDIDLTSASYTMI

galectin-3 [10] = target: T2, galectin-3; test: Competitive fluorescence polarization, galectin-3 with improved-affinity probe (as described in ref 15); assay type: binding; set-up: made in house; conditions: average ± SEM

Structure (SMILES): OC[C@H]1O[C@@H](S[C@@H]2O[C@H](CO)[C@H](O)[C@H](n3cc(-c4ccsc4)nn3)[C@H]2O)[C@H](O)[C@@H](n2cc(-c3ccsc3)nn2)[C@H]1O [compound 1]
- Cytotoxicity (MCF-7 [1]): non-cytotoxic
- Cytotoxicity (MCF-10A [2]): non-cytotoxic
- Kd (Human galectin-1 [3]): 0.0061 ± 0.001 µM
- Kd Galectin-1 (Human galectin-1 [3]): single-digit
- Cytotoxicity (JIMT-1 [4]): non-cytotoxic

Structure (SMILES): Cc1ccc(S[C@@H]2O[C@H](CO)[C@H](O)[C@H](n3cc(-c4cccs4)nn3)[C@H]2O)cc1 [compound 6, p-Methylphenyl 3-deoxy-3-[4-(thien-2-yl)-1H-1,2,3-triazol-1-yl]-1-thio-β-D-galactopyranoside]
- Cytotoxicity (JIMT-1 [6]): non-cytotoxic
- Kd (Human galectin-1 [5]): 61 ± 4 µM
- Cytotoxicity (MCF-10A [7]): non-cytotoxic
- Cytotoxicity (MCF-7 [8]): non-cytotoxic

Structure (SMILES): Cc1ccc(S[C@@H]2O[C@H](CO)[C@H](O)[C@H](n3cc(-c4ccsc4)nn3)[C@H]2O)cc1 [compound 7, p-Methylphenyl 3-deoxy-3-[4-(thien-3-yl)-1H-1,2,3-triazol-1-yl]-1-thio-β-D-galactopyranoside]
- Cytotoxicity (JIMT-1 [6]): non-cytotoxic
- Kd (Human galectin-1 [5]): 47 ± 2 µM
- Cytotoxicity (MCF-10A [7]): non-cytotoxic
- Cytotoxicity (MCF-7 [8]): non-cytotoxic

Structure (SMILES): O=C(O)CS[C@@H]1O[C@H](CO)[C@H](O)[C@H](n2cc(-c3ccsc3)nn2)[C@H]1O [compound 12, Carboxymethyl 3-deoxy-3-[4-(thien-3-yl)-1H-1,2,3-triazol-1-yl]-1-thio-β-D-galactopyranoside]
- Kd (Human galectin-1 [5]): 58 ± 4 µM
- Galectin-3/galectin-1 (Human galectin-1 [5]): 3.4
- Cytotoxicity (MCF-7 [1]): non-cytotoxic
- Kd (galectin-3 [9]): 200 ± 7 µM
- Cytotoxicity (MCF-10A [2]): non-cytotoxic
- Cytotoxicity (JIMT-1 [4]): non-cytotoxic

Structure (SMILES): O=C(O)CS[C@@H]1O[C@H](CO)[C@H](O)[C@H](n2cc(-c3nccs3)nn2)[C@H]1O [compound 13, Carboxymethyl 3-deoxy-3-[4-(thiazol-2-yl)-1H-1,2,3-triazol-1-yl]-1-thio-β-D-galactopyranoside]
- Kd (Human galectin-1 [5]): 43 ± 2 µM
- Cytotoxicity (MCF-7 [1]): non-cytotoxic
- Kd (galectin-3 [9]): 280 ± 7 µM
- Cytotoxicity (MCF-10A [2]): non-cytotoxic
- Cytotoxicity (JIMT-1 [4]): non-cytotoxic

Structure (SMILES): O=C(O)CS[C@@H]1O[C@H](CO)[C@H](O)[C@H](n2cc(-c3cscn3)nn2)[C@H]1O [compound 14, Carboxymethyl 3-deoxy-3-[4-(thiazol-4-yl)-1H-1,2,3-triazol-1-yl]-1-thio-β-D-galactopyranoside]
- Kd (Human galectin-1 [5]): 62 ± 2 µM
- Galectin-3/galectin-1 (Human galectin-1 [5]): 8.7
- Cytotoxicity (MCF-7 [1]): non-cytotoxic
- Kd (galectin-3 [9]): 540 ± 30 µM
- Cytotoxicity (MCF-10A [2]): non-cytotoxic
- Cytotoxicity (JIMT-1 [4]): non-cytotoxic

Structure (SMILES): O=C(O)CS[C@@H]1O[C@H](CO)[C@H](O)[C@H](O)[C@H]1O [compound 17, reference compound]
- Kd (Human galectin-1 [5]): 430 ± 40 µM
- Galectin-3/galectin-1 (Human galectin-1 [5]): 4.2
- Kd (galectin-3 [9]): 1800 ± 100 µM

Structure (SMILES): OC[C@H]1O[C@@H](S[C@@H]2O[C@H](CO)[C@H](O)[C@H](n3cc(-c4nccs4)nn3)[C@H]2O)[C@H](O)[C@@H](n2cc(-c3nccs3)nn2)[C@H]1O [compound 19, 1,1′-Sulfanediyl-bis-{3-deoxy-3-[4-(thiazol-2-yl)-1H-1,2,3-triazol-1-yl]-β-D-galactopyranoside}]
- Cytotoxicity (MCF-7 [1]): non-cytotoxic
- Cytotoxicity (MCF-10A [2]): non-cytotoxic
- Kd (Human galectin-1 [3]): 0.0084 ± 0.001 µM
- Kd Galectin-1 (Human galectin-1 [3]): single-digit
- Cytotoxicity (JIMT-1 [4]): non-cytotoxic

Further lines, results first:

- Kd (Human galectin-1 [5]): 370 ± 30 µM
- Galectin-3/galectin-1 (Human galectin-1 [5]): 2.6
Structure (SMILES): Cc1ccc(S[C@@H]2O[C@H](CO)[C@H](O)[C@H](n3cc(C4CCCC4)nn3)[C@H]2O)cc1 [compound 4, p-Methylphenyl 3-deoxy-3-(4-cyclopentyl-1H-1,2,3-triazol-1-yl)-1-thio-β-D-galactopyranoside]

- Kd (Human galectin-1 [5]): 120 ± 7 µM
- Galectin-3/galectin-1 (Human galectin-1 [5]): 2.1
Structure (SMILES): Cc1ccc(S[C@@H]2O[C@H](CO)[C@H](O)[C@H](n3cc(-c4ccoc4)nn3)[C@H]2O)cc1 [compound 5, p-Methylphenyl 3-deoxy-3-[4-(furan-3-yl)-1H-1,2,3-triazol-1-yl]-1-thio-β-d-galactopyranoside]

- Kd (Human galectin-1 [5]): 47 ± 3 µM
- Galectin-3/galectin-1 (Human galectin-1 [5]): 4.7
Structure (SMILES): Cc1ccc(S[C@@H]2O[C@H](CO)[C@H](O)[C@H](n3cc(-c4ncc[nH]4)nn3)[C@H]2O)cc1 [compound 8, p-Methylphenyl 3-deoxy-3-[4-(1H-imidazol-2-yl)-1H-1,2,3-triazol-1-yl]-1-thio-β-D-galactopyranoside]

- Kd (Human galectin-1 [5]): 140 ± 7 µM
- Galectin-3/galectin-1 (Human galectin-1 [5]): 2.4
Structure (SMILES): Cc1ccc(S[C@@H]2O[C@H](CO)[C@H](O)[C@H](n3cc(-c4c[nH]cn4)nn3)[C@H]2O)cc1 [compound 9, p-Methylphenyl 3-deoxy-3-[4-(1H-imidazol-4-yl)-1H-1,2,3-triazol-1-yl]-1-thio-β-D-galactopyranoside]

- Kd (Human galectin-1 [5]): 180 ± 9 µM
- Galectin-3/galectin-1 (Human galectin-1 [5]): 2.4
- Kd (galectin-3 [9]): 430 ± 20 µM
Structure (SMILES): O=C(O)CS[C@@H]1O[C@H](CO)[C@H](O)[C@H](n2cc(-c3cncs3)nn2)[C@H]1O [compound 15, Carboxymethyl 3-deoxy-3-[4-(thiazol-5-yl)-1H-1,2,3-triazol-1-yl]-1-thio-β-D-galactopyranoside]

- Galectin-3/galectin-1 (Human galectin-1 [5]): 0.2
Structure (SMILES): Cc1ccc(S[C@@H]2O[C@H](CO)[C@H](O)[C@H](O)[C@H]2O)cc1 [compound 16, reference compound]

- Kd (galectin-3 [10]): 0.18 ± 0.01 µM
- Increased galectin-1 selectivity compared to corresponding monogalactoside (Human galectin-1 [3]): 2 fold
- Lower affinity for galectin-1 than thiophene 1 (Human galectin-1 [3]): 4 fold
- Kd (Human galectin-1 [3]): 0.025 ± 0.002 µM
- Galectin-3/galectin-1 (Human galectin-1 [3]): 7.2
Structure (SMILES): OC[C@H]1O[C@@H](S[C@@H]2O[C@H](CO)[C@H](O)[C@H](n3cc(-c4ncc[nH]4)nn3)[C@H]2O)[C@H](O)[C@@H](n2cc(-c3ncc[nH]3)nn2)[C@H]1O [compound 20, 1,1′-Sulfanediyl-bis-{3-deoxy-3-[4-(1H-imidazol-2-yl)-1H-1,2,3-triazol-1-yl]-β-D-galactopyranoside}]

- Kd (galectin-3 [10]): 0.061 ± 0.003 µM
- Increased galectin-1 selectivity compared to corresponding monogalactoside (Human galectin-1 [3]): 2 fold
- Kd (Human galectin-1 [3]): 0.012 ± 0.001 µM
- Galectin-3/galectin-1 (Human galectin-1 [3]): 5.1
Structure (SMILES): OC[C@H]1O[C@@H](S[C@@H]2O[C@H](CO)[C@H](O)[C@H](n3cc(-c4nccs4)nn3)[C@H]2O)[C@H](O)[C@@H](n2cc(-c3ccsc3)nn2)[C@H]1O [compound 22, 3,3′-Dideoxy-3-[4-(thiazol-2-yl)-1H-1,2,3-triazol-1-yl]-3′-[4-(thien-3-yl)-1H-1,2,3-triazol-1-yl]-1,1′-sulfanediyl-di-β-D-galactopyranoside]

- Kd (galectin-3 [10]): 0.0018 ± 0.0002 µM
- Kd (Human galectin-1 [3]): 0.013 ± 0.001 µM
- Galectin-3/galectin-1 (Human galectin-1 [3]): 0.14
Structure (SMILES): OC[C@H]1O[C@@H](S[C@@H]2O[C@H](CO)[C@H](O)[C@H](n3cc(-c4nccs4)nn3)[C@H]2O)[C@H](O)[C@@H](n2cc(-c3ccc(F)c(F)c3)nn2)[C@H]1O [compound 23, 3,3′-Dideoxy-3′-[4-(3,4-difluorophenyl)-1H-1,2,3-triazol-1-yl]-3-[4-(thiazol-2-yl)-1H-1,2,3-triazol-1-yl]-1,1′-sulfanediyl-di-β-D-galactopyranoside]

Reference: paper PMC9082524, “Aromatic heterocycle galectin-1 interactions for selective single-digit nM affinity ligands” (RSC Advances, 2018)
